Calls of active or inactive are those of the source.
Columns and labels:
[1] = biological target: E3 ubiquitin-protein ligase Mdm2 (Homo sapiens, UniProt Q00987); assay: MDM2-luc reporter signal enhancers, multi-concentration potency testing, MDM2 ubiquitin-protein ligase inhibitor program, whole-cell format, luminescence detection, 384-well microplate (AID 1394); type: functional;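 further: MDM2 E3 inhibitors raise luminescence so EC50 is for signal enhancement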
[2] = biological target: Mitogen-activated protein kinase 10 (Homo sapiens, UniProt P53779); assay: Dose response biochemical screening assay for inhibitors of c-Jun N-Terminal Kinase 3 (JNK3). [Related pubchem assays: 746 ]
H9c2 = assay: cells; type: functional, cell-based; settings: Rattus norvegicus, H9c2, Myocardium;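 further: confirmatory concentration-response retest of ultra-high-throughput screening hits for modulation of myocardial damage; cell death induced by hydrogen peroxide oxidative stress; compound pretreatment for 60 min then peroxide exposure for 2 h; potency is for protecting the cells against peroxide damage rather than for killing them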
Major prion protein = Major prion protein (Homo sapiens, UniProt P04156); type: functional, cell-based
[3] = biological target: T1, Rac GTPase-activating protein 1 (Homo sapiens, UniProt Q9H0H5); assay: blockers of MgcRacGAP-driven Rac1 GTP hydrolysis – biochemical, ADP Hunter fluorescence, primary and confirmatory, confirmation (AID 624330); type: functional
T1 sequence (Q9H0H5 whole entry): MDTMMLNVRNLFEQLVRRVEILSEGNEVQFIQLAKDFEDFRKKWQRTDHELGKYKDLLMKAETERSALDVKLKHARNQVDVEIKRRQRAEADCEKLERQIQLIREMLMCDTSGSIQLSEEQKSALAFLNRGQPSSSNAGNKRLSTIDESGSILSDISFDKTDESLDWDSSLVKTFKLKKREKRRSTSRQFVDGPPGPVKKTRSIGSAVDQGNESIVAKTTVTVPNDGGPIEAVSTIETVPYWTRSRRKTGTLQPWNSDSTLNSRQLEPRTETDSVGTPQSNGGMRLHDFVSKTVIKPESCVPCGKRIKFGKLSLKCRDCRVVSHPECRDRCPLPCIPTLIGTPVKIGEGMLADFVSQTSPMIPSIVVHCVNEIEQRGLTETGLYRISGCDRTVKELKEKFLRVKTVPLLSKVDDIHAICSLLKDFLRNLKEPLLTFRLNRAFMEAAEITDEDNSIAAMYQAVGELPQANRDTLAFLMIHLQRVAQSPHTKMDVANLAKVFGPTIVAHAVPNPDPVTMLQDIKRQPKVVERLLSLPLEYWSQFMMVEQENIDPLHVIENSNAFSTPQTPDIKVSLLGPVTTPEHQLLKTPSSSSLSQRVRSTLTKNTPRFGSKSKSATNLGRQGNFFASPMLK

[4] = biological target: Heat shock protein HSP 90-alpha (Homo sapiens, UniProt P07900); assay: Luminescence-based dose response biochemical high throughput screening assay for inhibitors of the Heat Shock Protein 90 (HSP90). [Related pubchem assays: 1831 (Summary AID.), 1846 (Confirmation screen.), 1789 (Primary screen.)]
[5] = M. tuberculosis growth inhibition, HTS (AID 449762); type: functional
Aminopeptidase N = biological target: T2, Aminopeptidase N (Plasmodium falciparum FcB1/Columbia, UniProt O96935); assay: malaria alanyl aminopeptidase activity blockers – biochemical, fluorogenic H-Leu-NHMec substrate, 1536-well (AID 1445); set-up: species or system Plasmodium falciparum 3D7, 3D7
T2 sequence (O96935 whole entry): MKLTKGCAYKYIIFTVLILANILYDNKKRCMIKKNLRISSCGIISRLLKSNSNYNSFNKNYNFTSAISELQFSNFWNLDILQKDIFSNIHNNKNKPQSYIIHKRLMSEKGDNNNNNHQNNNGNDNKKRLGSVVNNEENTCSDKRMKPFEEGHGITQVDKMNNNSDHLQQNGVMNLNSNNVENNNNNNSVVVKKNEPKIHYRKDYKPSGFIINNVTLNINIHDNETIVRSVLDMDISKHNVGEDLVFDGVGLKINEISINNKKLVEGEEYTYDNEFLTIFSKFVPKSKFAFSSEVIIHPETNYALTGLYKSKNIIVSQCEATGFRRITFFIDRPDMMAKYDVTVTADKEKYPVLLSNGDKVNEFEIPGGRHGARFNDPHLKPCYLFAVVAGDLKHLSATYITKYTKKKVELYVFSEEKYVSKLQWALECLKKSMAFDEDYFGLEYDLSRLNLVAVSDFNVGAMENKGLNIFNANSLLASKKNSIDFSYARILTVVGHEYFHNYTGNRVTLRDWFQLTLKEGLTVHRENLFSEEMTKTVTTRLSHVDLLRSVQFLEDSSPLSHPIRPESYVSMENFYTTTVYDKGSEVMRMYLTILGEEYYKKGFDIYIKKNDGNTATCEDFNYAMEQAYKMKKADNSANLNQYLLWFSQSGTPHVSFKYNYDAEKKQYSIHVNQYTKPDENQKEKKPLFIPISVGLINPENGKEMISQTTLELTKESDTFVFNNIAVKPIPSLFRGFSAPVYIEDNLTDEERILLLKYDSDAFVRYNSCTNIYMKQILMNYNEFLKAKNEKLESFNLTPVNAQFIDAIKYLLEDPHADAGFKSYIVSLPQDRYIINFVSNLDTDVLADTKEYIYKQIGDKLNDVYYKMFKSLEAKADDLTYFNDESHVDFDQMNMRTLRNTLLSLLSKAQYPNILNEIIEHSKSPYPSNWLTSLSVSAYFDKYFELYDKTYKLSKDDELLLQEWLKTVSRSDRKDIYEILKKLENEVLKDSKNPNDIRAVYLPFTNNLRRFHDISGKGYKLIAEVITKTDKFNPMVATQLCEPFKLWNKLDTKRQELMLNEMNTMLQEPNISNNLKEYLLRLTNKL

[6] = biological target: T3, RNA-binding protein pos-1 (Caenorhabditis elegans, UniProt G5EF15); assay: disruptors of C. elegans POS-1 RNA interaction – biochemical, fluorescence polarization, dose response (AID 1964);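 further: purified POS-1 fused to maltose binding protein made in E. coli; potency of compounds blocking POS-1 binding to fluorescent RNA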
T3 sequence (G5EF15 whole entry): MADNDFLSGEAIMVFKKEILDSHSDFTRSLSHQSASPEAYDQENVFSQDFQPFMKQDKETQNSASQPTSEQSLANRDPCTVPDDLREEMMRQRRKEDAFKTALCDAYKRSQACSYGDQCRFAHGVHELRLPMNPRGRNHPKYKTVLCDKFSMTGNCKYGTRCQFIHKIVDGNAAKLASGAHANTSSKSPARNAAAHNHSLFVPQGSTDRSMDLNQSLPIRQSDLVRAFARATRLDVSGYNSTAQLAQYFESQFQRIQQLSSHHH

[7] = biological target: T4, Zinc finger protein mex-5 (Caenorhabditis elegans, UniProt Q9XUB2); assay: potency of MEX-5 RNA-binding blockers – biochemical, C. elegans, fluorescence polarization, dose response (AID 1960)
T4 sequence (Q9XUB2 whole entry): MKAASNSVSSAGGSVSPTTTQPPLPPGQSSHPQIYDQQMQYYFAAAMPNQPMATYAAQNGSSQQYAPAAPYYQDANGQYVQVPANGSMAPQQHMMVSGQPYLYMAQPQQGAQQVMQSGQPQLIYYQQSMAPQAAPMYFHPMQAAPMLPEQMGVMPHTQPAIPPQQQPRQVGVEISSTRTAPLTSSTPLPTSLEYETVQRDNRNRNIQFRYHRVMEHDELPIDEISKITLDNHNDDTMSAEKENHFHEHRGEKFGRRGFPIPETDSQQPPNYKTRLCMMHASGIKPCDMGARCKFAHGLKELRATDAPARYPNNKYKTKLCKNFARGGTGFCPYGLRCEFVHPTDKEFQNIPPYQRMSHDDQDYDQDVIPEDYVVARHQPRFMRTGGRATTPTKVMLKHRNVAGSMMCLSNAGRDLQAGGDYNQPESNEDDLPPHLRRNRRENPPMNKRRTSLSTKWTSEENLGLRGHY

[8] = biological target: Bifunctional protein GlmU (Mycobacterium tuberculosis, UniProt P9WMN3); assay: Inhibitors of Mycobacterial Glucosamine-1-phosphate acetyl transferase (GlmU). Secondary screen.; set-up: species or system Mycobacterium tuberculosis H37Rv
Cysteine protease ATG4B = biological target: T5, Cysteine protease ATG4B (Homo sapiens, UniProt Q9Y4P1); type: functional;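 further: Fluorescence-based dose-response confirmation assay measuring inhibition of ATG4B activity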
T5 sequence (Q9Y4P1 whole entry): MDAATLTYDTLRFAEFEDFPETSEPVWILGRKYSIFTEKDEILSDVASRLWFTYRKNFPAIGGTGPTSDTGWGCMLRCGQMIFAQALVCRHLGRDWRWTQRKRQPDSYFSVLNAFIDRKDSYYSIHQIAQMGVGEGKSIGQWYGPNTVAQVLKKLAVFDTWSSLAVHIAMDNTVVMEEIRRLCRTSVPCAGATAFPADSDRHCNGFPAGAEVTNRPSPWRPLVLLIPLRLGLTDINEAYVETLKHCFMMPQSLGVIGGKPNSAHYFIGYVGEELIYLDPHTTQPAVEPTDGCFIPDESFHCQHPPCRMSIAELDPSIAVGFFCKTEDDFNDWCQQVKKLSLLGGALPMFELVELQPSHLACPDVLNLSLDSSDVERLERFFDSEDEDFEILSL

Phospholipase A2 = Phospholipase A2 (Homo sapiens, UniProt P04054); type: functional;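 further: confirmatory dose-response counterscreen on phospholipase A2, testing hits that came from an ultra-high-throughput screen for ATG4B inhibitors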
[9] = biological target: DNA (cytosine-5)-methyltransferase 1 (Homo sapiens, UniProt P26358); assay: inhibition of DNA methylation by DNMT1 – biochemical, fluorescent molecular beacon, confirmation (AID 602386); type: functional
[10] = biological target: T6, Heat shock factor protein 1 (Mus musculus, UniProt P38532); assay: enhancement of HSF1-driven luciferase signal – cell-based, NIH3T3, luminescence, dose retest, confirmation (AID 435004); type: functional;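 further: stress induced by proteasome inhibitor MG132 added 30 min after compound; luciferase reporter driven by HSF1 response element in NIH3T3 cells; actives raise luminescence as potentiators of the MG132 stress response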
T6 sequence (P38532 whole entry): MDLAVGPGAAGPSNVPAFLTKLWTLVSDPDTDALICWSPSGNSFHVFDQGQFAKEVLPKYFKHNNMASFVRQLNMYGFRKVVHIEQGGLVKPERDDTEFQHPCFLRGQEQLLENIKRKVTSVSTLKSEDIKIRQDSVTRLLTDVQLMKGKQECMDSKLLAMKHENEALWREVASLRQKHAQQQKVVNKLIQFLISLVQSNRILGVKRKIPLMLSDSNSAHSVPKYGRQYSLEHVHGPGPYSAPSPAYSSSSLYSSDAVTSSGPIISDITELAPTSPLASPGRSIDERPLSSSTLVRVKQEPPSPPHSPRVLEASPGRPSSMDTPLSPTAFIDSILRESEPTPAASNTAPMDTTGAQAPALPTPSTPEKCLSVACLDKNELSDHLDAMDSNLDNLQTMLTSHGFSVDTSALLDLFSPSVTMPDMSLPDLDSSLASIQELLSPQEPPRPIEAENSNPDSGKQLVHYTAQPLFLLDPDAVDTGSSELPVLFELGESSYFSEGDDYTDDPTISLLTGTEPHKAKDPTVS

Genome polyprotein = Genome polyprotein (Hepatitis C virus, UniProt Q2Q167); assay: disruption of hepatitis C core self-association – biochemical, TR-FRET, dose response (AID 2159); set-up: species or system Hepacivirus hominis;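 further: blocks dimerization of HCV core protein measured by TR-FRET between tagged core106 pairs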
SUMO-activating enzyme [11] = biological target: T7, SUMO-activating enzyme (Homo sapiens, UniProt Q9UBT2); assay: blockers of UBC9-mediated SUMO conjugation – biochemical, AlphaScreen, SUMOylation inhibitor project, confirmation (AID 2018); type: functional
SUMO-activating enzyme [12] = biological target: T7, SUMO-activating enzyme; assay: blockers of SAE1/SAE2–UBC9 SUMO transfer – biochemical, HTRF, uHTS, primary screen (AID 2006); type: protein-complex assay
[13] = biological target: Induced myeloid leukemia cell differentiation protein Mcl-1 (Homo sapiens, UniProt Q07820); type: functional
[14] = biological target: Eukaryotic translation initiation factor 4E (Mus musculus, UniProt P63073); assay: blockers of eIF4G binding by eIF4E – biochemical, TR-FRET, dose response (AID 855); type: functional;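 further: potency for disrupting eIF4E binding to eIF4GI seen as loss of FRET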
[15] = biological target: T8, Carboxy-terminal domain RNA polymerase II polypeptide A small phosphatase 1 (Homo sapiens, UniProt Q9GZU7); assay: CTDSP1 inhibitors, concentration-response, biochemical, absorbance readout, ultra-high-throughput screen actives (AID 540297); type: functional
T8 sequence (Q9GZU7 whole entry): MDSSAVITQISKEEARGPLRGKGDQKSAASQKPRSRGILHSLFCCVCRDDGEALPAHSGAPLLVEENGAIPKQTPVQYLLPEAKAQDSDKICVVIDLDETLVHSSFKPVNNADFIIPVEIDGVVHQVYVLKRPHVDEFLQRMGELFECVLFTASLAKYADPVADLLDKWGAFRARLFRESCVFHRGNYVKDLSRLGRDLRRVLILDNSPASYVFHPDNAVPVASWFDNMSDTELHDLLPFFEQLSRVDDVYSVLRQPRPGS

Cc1nc(CSc2nsc(/C=C/N(C)C)c2C#N)cs1
EC50 [1]: 19.8 µM (not active)

Brc1ccc(-c2nn3c(-c4ccco4)nnc3s2)o1
IC50 [2]: 58 µM (not active) | IC50 (H9c2): > 79 µM (inactive) | IC50 (Major prion protein): 4.14 µM (active) | IC50 (cells): > 138 µM (inactive)

CCCOC(=O)c1ccc(O)c(OC)c1
EC50 [1]: 468 µM (not active) | IC50 [3]: 127 µM (active)

CCOC(=O)c1csc(NC(=O)c2cc3ccccc3o2)n1
IC50 [4]: 0.784 µM (active)

COc1ccc(NC(=O)ON=C2c3ccccc3-c3ccccc32)cc1
IC50 [5]: > 100 µM (active)

O=C(O)c1ccc(-c2ccc(/C=C3\NC(=O)N(Cc4ccc(Cl)cc4)C3=O)o2)cc1Cl
IC50 (Aminopeptidase N): 40.8 µM (active) | EC50 [6]: 29.4 µM (active) | EC50 [7]: 23.5 µM (active) | IC50 [8]: 67.1 µM (active) | IC50 (Cysteine protease ATG4B): 16.2 µM (active) | IC50 (Phospholipase A2): 16.1 µM (active) | IC50 [9]: 4.54 µM (active)

Nc1cc(-c2ccccc2)ccc1O
IC50 [4]: 3.39 µM (active)

C/C(=N/Cc1ccco1)C1=C(O)c2ccccc2C1=O
IC50 [2]: 30.9 µM (not active) | EC50 [10]: > 260 µM (inactive)

O=C(Nc1nccs1)c1cc(-c2ccco2)nc2ccccc12
IC50 (Genome polyprotein): > 49.8 µM (not active) | IC50 (SUMO-activating enzyme [11]): 6.87 µM (active) | IC50 (SUMO-activating enzyme [12]): 24.2 µM (active) | IC50 [13]: 2.5 µM (active) | IC50 [14]: > 64 µM (inactive) | IC50 [15]: 3.98 µM (active)

Reference: ChEMBL document CHEMBL1201862, “PubChem BioAssay data set” (2004)
